Test results: PubChem BioAssay AID248 (DTP/NCI, 2004)
Several values for one entry are separate records, joined by “and”; a condition that tells them apart may be missing. Equal entries are not always repeated. Inconclusive results and toxic doses are left out. Cut-off read from the data, not from the text of the source: active = T/C of 150% or more; inactive = T/C below 125%.

System: L1210 leukemia ip in BDF1 mice, survival T/C
Test: NCI In Vivo Anticancer Drug Screen. Data for tumor model L1210 Leukemia (intraperitoneal) in B6D2F1 (BDF1) mice
Conditions: endpoint: mean survival time, higher = longer survival
Procedure, shortened: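 Ratio derived from survival: compound-dosed mice over vehicle-dosed mice, all bearing a transplantable tumor.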

[1] = dose: 300.0 mg/kg/injection, schedule: Q01DX001 (ip), vehicle: other
[2] = dose: 25.0 mg/kg/injection, schedule: Q01DX009 (ip), vehicle: saline with Tween-80
[3] = dose: 50.0 mg/kg/injection, schedule: Q01DX009 (ip), vehicle: saline with Tween-80
[4] = dose: 100.0 mg/kg/injection, schedule: Q01DX009 (ip), vehicle: saline with Tween-80
[5] = dose: 100.0 mg/kg/injection, schedule: Q01DX009 (ip), vehicle: Klucel (hydroxypropylcellulose) (HPC)
[6] = dose: 200.0 mg/kg/injection, schedule: Q01DX009 (ip), vehicle: Klucel (hydroxypropylcellulose) (HPC)
[7] = dose: 100.0 mg/kg/injection, schedule: Q01DX001 (ip), vehicle: carboxymethylcellulose (CMC)
[8] = dose: 200.0 mg/kg/injection, schedule: Q01DX001 (ip), vehicle: carboxymethylcellulose (CMC)
[9] = dose: 400.0 mg/kg/injection, schedule: Q01DX001 (ip), vehicle: carboxymethylcellulose (CMC)
[10] = dose: 100.0 mg/kg/injection, schedule: Q04DX003 (ip), vehicle: saline
[11] = dose: 200.0 mg/kg/injection, schedule: Q04DX003 (ip), vehicle: saline
[12] = dose: 400.0 mg/kg/injection, schedule: Q04DX003 (ip), vehicle: saline
[13] = dose: 100.0 mg/kg/injection, schedule: Q01DX009 (ip), vehicle: saline
[14] = dose: 200.0 mg/kg/injection, schedule: Q01DX009 (ip), vehicle: saline

Measured: T/C

CCN(C)CCC(CN)(CCN(C)CC)c1cccc2ccccc12
inactive: dose: 12.5 mg/kg/injection, schedule: Q04DX003 (ip), vehicle: saline 93 % of control | dose: 25.0 mg/kg/injection, schedule: Q04DX003 (ip), vehicle: saline 101 % of control | dose: 50.0 mg/kg/injection, schedule: Q04DX003 (ip), vehicle: saline 93 % of control

Nc1nc2nsnc2nc1N
inactive: dose: 3.12 mg/kg/injection, schedule: Q01DX009 (ip), vehicle: water 86 % of control | dose: 6.25 mg/kg/injection, schedule: Q01DX009 (ip), vehicle: water 93 % of control | dose: 12.5 mg/kg/injection, schedule: Q01DX009 (ip), vehicle: water 90 % of control | dose: 25.0 mg/kg/injection, schedule: Q01DX009 (ip), vehicle: water 98 % of control and 106 % of control | dose: 50.0 mg/kg/injection, schedule: Q01DX009 (ip), vehicle: water 97 % of control and 91 % of control

CNC(=O)Oc1ccc([N+](=O)[O-])cc1
inactive: dose: 75.0 mg/kg/injection, schedule: Q01DX001 (ip), vehicle: other 101 % of control | dose: 150.0 mg/kg/injection, schedule: Q01DX001 (ip), vehicle: other 101 % of control | [1] 104 % of control

OC1CCCCCC2CC12 (configuration not stated)
inactive: dose: 25.0 mg/kg/injection, schedule: Q01DX005 (ip), vehicle: saline with Tween-80 86 % of control | [2] 98 % of control | dose: 50.0 mg/kg/injection, schedule: Q01DX005 (ip), vehicle: saline with Tween-80 101 % of control | [3] 91 % of control | dose: 100.0 mg/kg/injection, schedule: Q01DX005 (ip), vehicle: saline with Tween-80 89 % of control and 90 % of control | [4] 91 % of control

OC/C(=C/c1ccccc1)c1ccccc1
inactive: dose: 50.0 mg/kg/injection, schedule: Q01DX009 (ip), vehicle: Klucel (hydroxypropylcellulose) (HPC) 98 % of control | dose: 75.0 mg/kg/injection, schedule: Q04DX003 (ip), vehicle: Klucel (hydroxypropylcellulose) (HPC) 100 % of control | [5] 91 % of control | dose: 150.0 mg/kg/injection, schedule: Q04DX003 (ip), vehicle: Klucel (hydroxypropylcellulose) (HPC) 98 % of control | [6] 93 % of control | dose: 300.0 mg/kg/injection, schedule: Q04DX003 (ip), vehicle: Klucel (hydroxypropylcellulose) (HPC) 96 % of control

Cc1cc(C2=CCCCC2)c2ccccc2c1C
inactive: dose: 100.0 mg/kg/injection, schedule: Q01DX001 (ip), vehicle: Klucel (hydroxypropylcellulose) (HPC) 95 % of control | dose: 200.0 mg/kg/injection, schedule: Q01DX001 (ip), vehicle: Klucel (hydroxypropylcellulose) (HPC) 103 % of control | dose: 400.0 mg/kg/injection, schedule: Q01DX001 (ip), vehicle: Klucel (hydroxypropylcellulose) (HPC) 95 % of control

O=C1c2ccccc2C(=O)c2c(Nc3cccc(S(=O)(=O)N(CCO)CCO)c3)ccc(O)c21
inactive: [3] 97 % of control | [4] 97 % of control | dose: 200.0 mg/kg/injection, schedule: Q01DX009 (ip), vehicle: saline with Tween-80 97 % of control

Fc1ccccc1-c1nnc(-c2ccccc2)o1
inactive: dose: 100.0 mg/kg/injection, schedule: Q04DX003 (ip), vehicle: Klucel (hydroxypropylcellulose) (HPC) 98 % of control | dose: 200.0 mg/kg/injection, schedule: Q04DX003 (ip), vehicle: Klucel (hydroxypropylcellulose) (HPC) 113 % of control | dose: 400.0 mg/kg/injection, schedule: Q04DX003 (ip), vehicle: Klucel (hydroxypropylcellulose) (HPC) 103 % of control

NC(=O)Nc1ccc2c(c1)Cc1cc(F)ccc1-2
inactive: dose: 87.0 mg/kg/injection, schedule: Q01DX001 (ip), vehicle: other 100 % of control | dose: 89.0 mg/kg/injection, schedule: Q01DX001 (ip), vehicle: carboxymethylcellulose (CMC) 97 % of control and 109 % of control | [7] 97 % of control | dose: 132.0 mg/kg/injection, schedule: Q01DX001 (ip), vehicle: other 97 % of control | dose: 133.0 mg/kg/injection, schedule: Q01DX001 (ip), vehicle: carboxymethylcellulose (CMC) 100 % of control and 112 % of control | [8] 104 % of control and 105 % of control | dose: 200.0 mg/kg/injection, schedule: Q01DX001 (ip), vehicle: other 92 % of control | dose: 300.0 mg/kg/injection, schedule: Q01DX001 (ip), vehicle: carboxymethylcellulose (CMC) 101 % of control and 108 % of control | [1] 97 % of control | [9] 105 % of control

C(/C=N/Nc1cnccn1)=N\Nc1cnccn1
inactive: [5] 89 % of control | [6] 89 % of control | dose: 400.0 mg/kg/injection, schedule: Q01DX009 (ip), vehicle: Klucel (hydroxypropylcellulose) (HPC) 110 % of control

O=S(=O)(O)C(I)(I)S(=O)(=O)O
inactive: [10] 99 % of control | [11] 100 % of control | [12] 95 % of control

NC(N)=NCCCC(N)C(=O)NCCCCCCNC(=O)CCC(=O)NCCCCCCNC(=O)C(N)CCCN=C(N)N (configuration not stated)
inactive: dose: 62.5 mg/kg/injection, schedule: Q01DX010 (ip), vehicle: saline 94 % of control | dose: 125.0 mg/kg/injection, schedule: Q01DX010 (ip), vehicle: saline 98 % of control | dose: 250.0 mg/kg/injection, schedule: Q01DX010 (ip), vehicle: saline 100 % of control | dose: 500.0 mg/kg/injection, schedule: Q01DX010 (ip), vehicle: saline 113 % of control

CCNCCCCNCC
inactive: [2] 95 % of control | dose: 25.0 mg/kg/injection, schedule: Q04DX003 (ip), vehicle: saline with Tween-80 98 % of control | [3] 101 % of control | dose: 50.0 mg/kg/injection, schedule: Q04DX003 (ip), vehicle: saline with Tween-80 91 % of control | dose: 100.0 mg/kg/injection, schedule: Q04DX003 (ip), vehicle: saline with Tween-80 94 % of control and 87 % of control

c1ccc2c(N=Nc3cccc4ccccc34)cccc2c1
inactive: [7] 97 % of control | [8] 97 % of control | [9] 93 % of control

CC(C)(C)S/C=C/C(N)=O
inactive: dose: 50.0 mg/kg/injection, schedule: Q01DX009 (ip), vehicle: saline 98 % of control | dose: 100.0 mg/kg/injection, schedule: Q01DX001 (ip), vehicle: saline 91 % of control | [13] 96 % of control | dose: 200.0 mg/kg/injection, schedule: Q01DX001 (ip), vehicle: saline 93 % of control | [14] 94 % of control

CSc1cccc(NC(C)=O)c1
inactive: [13] 97 % of control | [10] 93 % of control | [14] 113 % of control | [11] 97 % of control | dose: 400.0 mg/kg/injection, schedule: Q01DX009 (ip), vehicle: saline 104 % of control | [12] 101 % of control

CC(=O)OC(C)C(C)Br (configuration not stated)
inactive: dose: 50.0 mg/kg/injection, schedule: Q04DX002 (ip), vehicle: Klucel (hydroxypropylcellulose) (HPC) 93 % of control | dose: 100.0 mg/kg/injection, schedule: Q01DX001 (ip), vehicle: acetone 89 % of control | dose: 100.0 mg/kg/injection, schedule: Q04DX002 (ip), vehicle: Klucel (hydroxypropylcellulose) (HPC) 100 % of control | dose: 200.0 mg/kg/injection, schedule: Q01DX001 (ip), vehicle: acetone 92 % of control

O=N[O-].O=N[O-].[Co].[NH-]CCN(CC[NH-])CC[NH-]
inactive: dose: 50.0 mg/kg/injection, schedule: Q01DX001 (ip), vehicle: saline 108 % of control

CCOCCOCCOC(C)Oc1ccccc1 (configuration not stated)
inactive: dose: 100.0 mg/kg/injection, schedule: Q04DX002 (ip), vehicle: saline 104 % of control | dose: 200.0 mg/kg/injection, schedule: Q04DX002 (ip), vehicle: saline 111 % of control | dose: 400.0 mg/kg/injection, schedule: Q04DX002 (ip), vehicle: saline 104 % of control

CC1=CC(=O)C(CO)=CC1=O
inactive: dose: 0.09 mg/kg/injection, schedule: Q01DX009 (ip), vehicle: saline with Tween-80 93 % of control | dose: 0.18 mg/kg/injection, schedule: Q01DX009 (ip), vehicle: saline with Tween-80 97 % of control | dose: 0.37 mg/kg/injection, schedule: Q01DX009 (ip), vehicle: saline with Tween-80 104 % of control | dose: 3.0 mg/kg/injection, schedule: Q01DX009 (ip), vehicle: other 105 % of control | dose: 3.0 mg/kg/injection, schedule: Q04DX002 (ip), vehicle: other 107 % of control | dose: 6.0 mg/kg/injection, schedule: Q01DX009 (ip), vehicle: other 91 % of control | dose: 6.0 mg/kg/injection, schedule: Q04DX002 (ip), vehicle: other 96 % of control | dose: 12.5 mg/kg/injection, schedule: Q04DX002 (ip), vehicle: other 86 % of control
